Read-outs that look alike come from different tables or passages of the source.
Key:
[1] = test system: ES-cell derived cardiomyocytes; experiment: Beating frequency of ES cell-derived cardiomyocytes (contractions counted manually during 15 sec); format: cell-based, mouse; conditions: cardiomyocytes 25 days after start of differentiation
Description: Gated cardiomyocytes where cultivated in 6 cm tissue culture dishes. Fresh medium was supplemented with the test compound in concentrations ranging from 0.01-10 μM. For heat shock treatment the cells where incubated at 42° C. for 30 min. Mock treated cells served as control. Effects on the cardiomyocyte beating rate where recorded by manually counting the number of contractions during 15 sec. Beating rates have been recorded before addition of substances and 15 min and 4h after addition. After 4h of incubation the cells where washed with PBS, collected in reporter lysis buffer (RLB, Promega) and stored at −80° C.
Effects of noradrenaline are mediated via alpha and beta-adrenergic receptors, while isoproterenol effects are mediated specific via β-adrenergic receptors. Since β1 receptors play a pivotal role in mediating the beating rate, we analyzed changes in beating frequency of cardiomyocytes as a first indication of a response towards the tested compounds. The beating rate of a individual cluster per plate has been recorded before, 15 min after application of the stimulus and after 4h incubation. FIG. 3 summarizes the data of such an analysis using cardiomyocytes 25 days after start of differentiation. […] Due to the low starting beating frequency in some cases the x-fold increase is quite high. Nevertheless these elevated beating frequencies where still in the physiological range. […]

[2] = test system: CT-1 promoter; experiment: CT1-promoter luciferase reporter activity in ES cell-derived cardiomyocytes; format: cell-based, mouse; conditions: 0.1 μM, incubation for 4h, corrected for total protein
Description: Gated cardiomyocytes where cultivated in 6 cm tissue culture dishes. Fresh medium was supplemented with the test compound in concentrations ranging from 0.01-10 μM. For heat shock treatment the cells where incubated at 42° C. for 30 min. Mock treated cells served as control. […] After 4h of incubation the cells where washed with PBS, collected in reporter lysis buffer (RLB, Promega) and stored at −80° C. The Luciferase-activity in the thawed lysates was measured by flash-light Luciferase assay (Promega). In order to quantify Luciferase-activity a serial diluted recombinant Luciferase standard was analyzed in parallel. Values for Luciferase-activity where correct for the amount of total protein in the lysates measured by BCA-assay (Pierce). The transcriptional activity of the CT1-promoter was analyzed by measurement of Luciferase activity in the cellular lysates.

[3] = test system: cardiomyocyte nuclei in the ventricular septum; design: species or system mice; conditions: mouse, in vivo, 7 days
Description: Cryosections (10 μm) were generated using standard histologic techniques. For ISEL analysis, cryosections were processed using the Oncogene Research KLENOW-FragEL DNA Fragmentation Detection Kit. Signal was developed with biotinylated nucleotides and horseradish peroxidase (HRP) conjugated streptavidin (Roche Molecular Biochemicals). Signal was generated by incubation with diaminobenzidine using standard techniques. Beta-galactosidase activity was detected in the same sections via X-GAL staining as described (Soonpaa M. H. et al. (1994) Science 264: 98-101).
Isoproterenol is a beta-adrenergic agonist that induces cardiomyocyte hypertrophy both in vitro and in vivo. Prolonged exposure to isoproterenol is cardiotoxic, inducing cardiomyocyte apoptosis via a mechanism similar to that encountered during the progression of heart failure. The MHC-1152stp mice were tested to determine if transgene expression was cardioprotective during isoproterenol infusion, and specifically to see if 1152stp expression could antagonize isoproterenol-induced cardiomyocyte apoptosis. […]
Mice with a MHC-1152stp/MHC-nLAC genotype and a (−)/MHC-nLAC genotype were culled, and at 12 weeks of age were implanted with isoproterenol-filled osmotic mini-pumps, as described in several studies from our group (Soonpaa M. H. and Field L. J. (1994) American Journal of Physiology 266 (Heart and Circulatory Physiology 35): H1439-1445; Pasumarthi K. B., Nakajima H., Nakajima H. O., Jing S., Field L. J. (2000) Circ Res. 86: 1069-1077). […] Cardiomyocyte apoptosis was then calculated simply by determining the incidence of black HRP signal over blue nuclear staining; these analyses focused on cardiomyocytes residing in the ventricular septum, where the cardiotoxic effects of isoproterenol appear to be most pronounced. […]

[4] = MHC-nLAC transgenic ((−)/MHC-nLAC genotype)

Structure (SMILES)	change in beating frequency ([1]; 0.1 μM)	increase of CT1-promoter activity (Luciferase activity) compared to the untreated control [2]	% ISEL Positive ([3]; (−)/MHC-nLAC transgenic)	% ISEL Positive [3, 4]	ISEL Positive CM Nuclei [3, 4]	change in beating frequency ([1]; recorded before, 15 min and 4h after application, 0.01-10 μM)
CN(C)CCCN1c2ccccc2CCc2ccccc21 [imipramine]	increase in beating frequencies	more than 2 fold				
CC(C)NCC(O)c1ccc(O)c(O)c1 (stereo not shown) [isoproterenol]			~0.1%	0.098%	35 of 35604	
NC[C@H](O)c1ccc(O)c(O)c1 [noradrenaline]		1.73 fold				dose dependent increase
